According to paper PMC6268935, “Antiatherogenic Properties of Acetone Extract of Alpinia zerumbet Seeds” (Molecules, 2012):
Converted amounts (≈) assume the structure as drawn. Where two headings read alike, the source gives them in different places.

What was measured:
[1] = tested on: low-density lipoprotein cholesterol from human plasma (LDL); experiment: LDL oxidation inhibition assay (CuSO4-induced, TBARS); format: biochemical; details: copper-induced LDL oxidation, n = 3
Procedure: The oxidation of LDL was investigated as described by Rattan and Arad. […] The reaction was stopped by adding 50 μL of 1 M EDTA and placing the sample at −20 °C for TBA reactive substance (TBARS) assay. The generation of malonyldialdehyde (MDA) equivalents during LDL oxidation was estimated by the TBARS assay using the method of Steinbrecher et al.. LDL oxidation was carried out as described above. After oxidation, LDL was mixed with 1.5 mL of 0.67% TBA and 1.5 mL of 20% TCA. After placing samples in boiling water (100 °C) for 30 min, the reaction product was kept for 30 min at 25 °C and centrifuged for 15 min at 4 °C. The supernatants were read on a spectrophotometer at 532 nm, blank containing 220 μg/mL LDL only. The yields of MDA were used as a standard and the results were expressed as nanomoles of MDA equivalents.

[2] = target: T1, porcine pancreatic lipase (PL) (Sus scrofa, UniProt P00591); experiment: Pancreatic lipase inhibition assay (p-NPB hydrolysis); format: biochemical
T1 sequence (P00591 1-450): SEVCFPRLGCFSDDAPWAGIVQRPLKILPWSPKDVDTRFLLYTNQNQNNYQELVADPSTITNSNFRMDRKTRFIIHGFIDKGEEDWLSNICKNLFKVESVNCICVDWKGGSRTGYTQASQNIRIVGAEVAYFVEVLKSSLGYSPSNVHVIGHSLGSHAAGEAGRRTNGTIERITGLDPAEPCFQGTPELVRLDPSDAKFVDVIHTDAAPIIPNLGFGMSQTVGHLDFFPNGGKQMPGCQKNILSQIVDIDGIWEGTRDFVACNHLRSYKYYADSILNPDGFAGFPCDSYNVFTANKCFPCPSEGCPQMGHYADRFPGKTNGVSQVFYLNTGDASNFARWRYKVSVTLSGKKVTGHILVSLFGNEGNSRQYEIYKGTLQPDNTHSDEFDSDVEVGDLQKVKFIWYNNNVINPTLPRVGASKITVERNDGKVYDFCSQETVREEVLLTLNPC
Procedure: The ability of the different parts of crude extracts to inhibit PL was measured as described previously, with slight modifications. Briefly, an enzyme buffer was prepared by the addition of 30 μL (10 units) of PL solution (in 10 mM MOPS and 1 mM EDTA, pH 6.8) to 850 μL of Tris buffer (100 mM Tris-HCl and 5 mM CaCl2, pH 7.0). […] The reaction was allowed to proceed for 15 min at 37 °C after addition of 20 μL of the substrate solution (10 mM p-NPB in dimethyl formamide). The lipase activity was determined by measuring the hydrolysis of p-NPB to p-nitrophenol at 400 nm using microplate reader. Inhibition of the lipase activity was expressed as the percentage decrease in the OD when PL was incubated with the test compounds.

[3] = target: T2, 15-Lipoxygenase from soybean (15-LO) (Glycine max, UniProt P08170); experiment: 15-Lipoxygenase inhibition assay (linoleic acid substrate); format: biochemical
T2 construct: purchased Cayman Chemical Company
T2 sequence (P08170 whole entry): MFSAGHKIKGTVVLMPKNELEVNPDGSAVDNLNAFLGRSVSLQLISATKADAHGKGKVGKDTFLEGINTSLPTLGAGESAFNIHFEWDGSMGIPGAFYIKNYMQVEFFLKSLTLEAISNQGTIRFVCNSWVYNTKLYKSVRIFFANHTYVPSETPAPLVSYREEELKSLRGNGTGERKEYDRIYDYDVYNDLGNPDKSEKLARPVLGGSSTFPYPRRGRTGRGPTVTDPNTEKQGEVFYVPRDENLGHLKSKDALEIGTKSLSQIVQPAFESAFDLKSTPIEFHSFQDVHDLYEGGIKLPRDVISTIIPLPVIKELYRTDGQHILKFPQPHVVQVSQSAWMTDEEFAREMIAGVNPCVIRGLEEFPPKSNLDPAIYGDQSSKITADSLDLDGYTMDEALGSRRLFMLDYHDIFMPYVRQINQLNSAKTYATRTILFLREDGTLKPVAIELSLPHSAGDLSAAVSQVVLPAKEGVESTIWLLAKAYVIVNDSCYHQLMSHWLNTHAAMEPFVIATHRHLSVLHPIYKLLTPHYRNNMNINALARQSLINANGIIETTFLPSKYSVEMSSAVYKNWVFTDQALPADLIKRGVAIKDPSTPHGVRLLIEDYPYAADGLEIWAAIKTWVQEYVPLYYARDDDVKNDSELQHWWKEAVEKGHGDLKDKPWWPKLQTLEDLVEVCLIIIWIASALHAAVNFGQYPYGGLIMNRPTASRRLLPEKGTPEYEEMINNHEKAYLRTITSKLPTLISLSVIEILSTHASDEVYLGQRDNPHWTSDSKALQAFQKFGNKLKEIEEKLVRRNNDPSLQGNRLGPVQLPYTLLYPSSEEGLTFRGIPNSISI
Procedure: The final enzyme concentration was 500 units/mL and the test samples were dissolved in DMSO solutions. All measurements were carried out at least twice, in each instance using caffeic and ferulic acids, a well-known inhibitor of 15-LO, as positive controls.

[4] = tested on: enzymes in the cholesterol biosynthetic pathway; details: cited from earlier work
[5] = tested on: rat hepatic stellate cells; design: method as in PMID 15787259; details: cited from earlier work
human cancer cell line = tested on: human cancer cell line; design: method as in PMID 19382453; details: cited from earlier work
[6] = normal human; cited from earlier work
[7] = tested on: accelerated atherosclerosis in native hearts; design: method as in PMID 8419015; details: native hearts of a rabbit heart transplant model; cited from earlier work
tyrosinase mushroom = tyrosinase mushroom (Agaricus bisporus, UniProt C7FF04); experiment: Anti-tyrosinase activity assay; format: biochemical; details: n = 3
Chain of tyrosinase mushroom (C7FF04 1-392): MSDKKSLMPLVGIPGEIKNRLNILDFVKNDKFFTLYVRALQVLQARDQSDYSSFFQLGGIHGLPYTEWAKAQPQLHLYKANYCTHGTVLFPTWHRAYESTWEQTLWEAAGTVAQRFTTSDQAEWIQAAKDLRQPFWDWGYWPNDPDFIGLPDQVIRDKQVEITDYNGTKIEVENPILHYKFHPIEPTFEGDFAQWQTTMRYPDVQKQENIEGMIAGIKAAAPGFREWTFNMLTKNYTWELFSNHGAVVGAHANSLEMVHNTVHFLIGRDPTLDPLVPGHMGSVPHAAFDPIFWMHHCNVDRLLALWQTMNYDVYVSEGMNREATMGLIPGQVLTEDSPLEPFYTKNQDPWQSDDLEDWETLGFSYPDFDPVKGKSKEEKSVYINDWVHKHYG
Procedure: Tyrosinase activity inhibition was determined by the method as described previously [29]. In brief, sample extracts were dissolved in methanol to make the different concentrations (μg/mL). The 96-well plate was set up in the following order; 120 μL of phosphate buffer (20 mM, pH 6.8), 20 μL of sample and 20 μL of tyrosinase mushroom (500 units/mL in 20 mM phosphate buffer). After incubation at 25 °C for 15 min, reaction was initiated by adding 20 μL of 0.85 mM L-tyrosine solution to each well. The enzyme activity was determined by measuring the absorbance at 470 nm using microplate reader (BioRad, Benchmark microplate reader, Hertfordshire, UK). […] The percentage of tyrosinase inhibition was calculated as follows:
where, A = absorbance of the control with enzyme; B = absorbance of the control without enzyme; C = absorbance of the test sample with enzyme; D = absorbance of the test sample without enzyme.

[8] = n = 3, read-out: IC50 pancreatic lipase (PL) inhibition (converted)
[9] = n = 3, read-out: IC50 15-LO inhibition (converted)

CC(C)[C@H](C)CC[C@@H](C)[C@H]1CC[C@H]2[C@@H]3CC=C4C[C@@H](O)CC[C@]4(C)[C@H]3CC[C@]12C [campesterol]
IC50 LDL oxidation inhibition [1]: 149.02 ± 1.93 µg/mL (≈ 372 µM) | IC50 [2]: 323 µM | IC50 [3]: 361 µM | inhibition of enzymes in the cholesterol biosynthetic pathway / cholesterol biosynthesis [4]: could not inhibit

CC(C)CCC[C@@H](C)[C@H]1CC[C@H]2[C@@H]3CC(=O)C4=CC(=O)CC[C@]4(C)[C@H]3CC[C@]12C [cholest-4-ene-3,6-dione]
IC50 LDL oxidation inhibition [1]: 16.12 ± 1.43 µg/mL (≈ 40.4 µM) | IC50 [2, 8]: 48.9 µM | IC50 [3, 9]: 85.8 µM | inhibitory activity on proliferation of rat hepatic stellate cells [5]: inhibitory activity | cytotoxic activity against human cancer cell line (human cancer cell line): cytotoxic activity

C[C@]12CC[C@H](O)CC1=CC[C@@H]1[C@@H]2CC[C@]2(C)C(=O)CC[C@@H]12 [dehydroepiandrosterone, 3β-hydroxy-5-androsten-17-one]
effect on serum LDL level [6]: reduce serum LDL level | effect on development of accelerated atherosclerosis [7]: inhibited the development of accelerated atherosclerosis

COc1cc(/C=C/C(=O)O)ccc1O [ferulic acid, reference compound]
IC50 15-LO inhibition ([3]; n = 3): 54.79 ± 1.12 µg/mL (≈ 282 µM)

O=c1c(O)c(-c2ccc(O)c(O)c2)oc2cc(O)cc(O)c12 [quercetin, reference compound]
IC50 LDL oxidation inhibition [1]: 22.56 ± 0.70 µg/mL (≈ 74.6 µM)

CC[C@H](CC[C@@H](C)[C@H]1CC[C@H]2[C@@H]3CC=C4C[C@@H](O)CC[C@]4(C)[C@H]3CC[C@]12C)C(C)C [sitosterol]
IC50 LDL oxidation inhibition [1]: 97.76 ± 0.77 µg/mL (≈ 236 µM) | IC50 tyrosinase inhibition (tyrosinase mushroom): 187.77 ± 0.04 µg/mL (≈ 453 µM) | IC50 pancreatic lipase (PL) inhibition ([2]; n = 3): 99.99 ± 1.86 µg/mL (≈ 241 µM) | IC50 15-LO inhibition ([3]; n = 3): 123.34 ± 1.94 µg/mL (≈ 297 µM) | inhibition of enzymes in the cholesterol biosynthetic pathway / cholesterol biosynthesis [4]: could not inhibit

CC[C@H](/C=C/[C@@H](C)[C@H]1CC[C@H]2[C@@H]3CC=C4C[C@@H](O)CC[C@]4(C)[C@H]3CC[C@]12C)C(C)C [stigmasterol]
IC50 LDL oxidation inhibition [1]: 50.01 ± 0.77 µg/mL (≈ 121 µM) | IC50 [2, 8]: 303 µM | IC50 [3, 9]: 182 µM | inhibition of enzymes in the cholesterol biosynthetic pathway / cholesterol biosynthesis [4]: inhibitory effects
